Experimental data published in US9096591B2, “Tetracyclic compounds” (Medivation Technologies, Inc., priority 2007, dated 2015).

Experiments:
Conditions in all cases: inhibition profile
[1] = biological target: T1, human recombinant serotonin (5-Hydroxytryptamine) 5-HT2C receptor (Homo sapiens, UniProt P28335); experiment: Serotonin 5-HT2C radioligand binding ([3H]Mesulergine)
T1 construct: expressed in transfected cells; host or cells: CHO-K1 cells
T1 sequence (P28335 33-458): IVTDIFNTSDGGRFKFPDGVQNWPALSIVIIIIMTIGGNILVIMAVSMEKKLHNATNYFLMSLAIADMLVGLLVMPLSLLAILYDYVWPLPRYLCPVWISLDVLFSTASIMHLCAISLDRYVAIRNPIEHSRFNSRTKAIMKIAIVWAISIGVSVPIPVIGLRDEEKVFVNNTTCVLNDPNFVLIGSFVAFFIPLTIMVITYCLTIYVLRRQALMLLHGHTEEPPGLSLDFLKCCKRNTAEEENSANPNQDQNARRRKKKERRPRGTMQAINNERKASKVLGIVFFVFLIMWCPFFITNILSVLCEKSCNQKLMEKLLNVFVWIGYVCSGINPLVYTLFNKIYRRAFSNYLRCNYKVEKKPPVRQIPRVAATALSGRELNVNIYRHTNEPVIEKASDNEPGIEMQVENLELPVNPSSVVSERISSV
Procedure: Compounds of the invention were incubated with 1 nM [^3H]Mesulergine for 60 minutes at 25° C. Non-specific binding was estimated in the presence of 1 μM Mianserin. Receptor proteins were filtered and washed, the filters were then counted to determine [^3H]Mesulergine specifically bound. […] Biochemical assay results are presented as the percent inhibition of specific binding in Table 6.

[2] = biological target: T2, human recombinant histamine H1 receptor (Homo sapiens, UniProt P35367); experiment: Histamine H1 radioligand binding ([3H]Pyrilamine)
T2 construct: expressed in transfected cells; host or cells: CHO cells
How it was run: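 Receptor expressed in CHO cells, assayed in 50 mM Tris-HCl pH 7.4 with 2 mM MgCl2, 100 mM NaCl, 250 mM sucrose. Compounds tested at 1 μM in 1% DMSO; non-specific binding set with 1 μM pyrilamine. Filter-bound radioactivity counted; values are percent inhibition of specific binding.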

[3] = biological target: T3, human recombinant adrenergic α2B receptor (Homo sapiens, UniProt P18089); experiment: Adrenergic α2B radioligand binding ([3H]Rauwolscine)
T3 construct: expressed in transfected cells; host or cells: CHO-K1 cells
T3 sequence (P18089 1-450): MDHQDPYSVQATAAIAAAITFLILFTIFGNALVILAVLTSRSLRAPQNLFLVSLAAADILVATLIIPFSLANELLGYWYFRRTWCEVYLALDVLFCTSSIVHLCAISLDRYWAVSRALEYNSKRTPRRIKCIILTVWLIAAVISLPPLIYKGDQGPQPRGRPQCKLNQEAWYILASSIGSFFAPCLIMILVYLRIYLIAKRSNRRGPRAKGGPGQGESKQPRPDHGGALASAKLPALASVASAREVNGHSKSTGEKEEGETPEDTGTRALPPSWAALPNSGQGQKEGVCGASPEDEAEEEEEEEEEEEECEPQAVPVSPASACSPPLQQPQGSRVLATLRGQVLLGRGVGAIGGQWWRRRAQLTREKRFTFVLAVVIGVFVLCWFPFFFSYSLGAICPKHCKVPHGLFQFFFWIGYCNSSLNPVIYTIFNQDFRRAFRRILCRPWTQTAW
How it was run: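 Membranes from CHO-K1 cells expressing the receptor, in 50 mM Tris-HCl pH 7.4 with 12.5 mM MgCl2, 1 mM EDTA, 0.2% BSA, incubated with compounds and 2.5 nM [3H]Rauwolscine for 60 minutes at 25 °C.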

[4] = biological target: T4, human recombinant serotonin (5-Hydroxytryptamine) 5-HT2A receptor (Homo sapiens, UniProt P28223); experiment: Serotonin 5-HT2A radioligand binding ([3H]Ketanserin)
T4 construct: expressed in transfected cells; host or cells: CHO-K1 cells
Procedure: Compounds of the invention were incubated with 0.5 nM [^3H]Ketanserin for 60 minutes at 25° C. Non-specific binding was estimated in the presence of 1 μM Mianserin. Receptor proteins were filtered and washed, the filters were then counted to determine [^3H]Ketanserin specifically bound. […] Biochemical assay results are presented as the percent inhibition of specific binding in Table 6.

[5] = biological target: T5, human recombinant serotonin (5-Hydroxytryptamine) 5-HT6 receptor (Homo sapiens, UniProt P50406); experiment: Serotonin 5-HT6 radioligand binding ([3H]LSD)
T5 construct: expressed in transfected cells; host or cells: human HeLa cells
From the text: Receptor proteins were filtered and washed, the filters were then counted to determine [3H]LSD specifically bound. […] Biochemical assay results are presented as the percent inhibition of specific binding in Table 6.

T2 sequence (P35367 whole entry): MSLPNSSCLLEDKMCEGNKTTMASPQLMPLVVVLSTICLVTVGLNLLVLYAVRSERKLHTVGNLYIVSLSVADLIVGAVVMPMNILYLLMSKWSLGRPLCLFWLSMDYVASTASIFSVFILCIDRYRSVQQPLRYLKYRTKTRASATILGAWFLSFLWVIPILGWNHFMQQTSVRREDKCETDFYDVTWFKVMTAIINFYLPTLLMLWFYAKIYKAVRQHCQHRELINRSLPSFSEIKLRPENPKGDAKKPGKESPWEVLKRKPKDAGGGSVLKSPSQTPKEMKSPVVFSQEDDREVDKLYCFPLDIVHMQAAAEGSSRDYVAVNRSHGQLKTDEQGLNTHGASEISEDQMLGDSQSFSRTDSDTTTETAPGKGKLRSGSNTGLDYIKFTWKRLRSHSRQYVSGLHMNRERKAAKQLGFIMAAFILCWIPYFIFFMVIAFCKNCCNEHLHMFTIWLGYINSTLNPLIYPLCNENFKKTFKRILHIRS
T4 sequence (P28223 whole entry): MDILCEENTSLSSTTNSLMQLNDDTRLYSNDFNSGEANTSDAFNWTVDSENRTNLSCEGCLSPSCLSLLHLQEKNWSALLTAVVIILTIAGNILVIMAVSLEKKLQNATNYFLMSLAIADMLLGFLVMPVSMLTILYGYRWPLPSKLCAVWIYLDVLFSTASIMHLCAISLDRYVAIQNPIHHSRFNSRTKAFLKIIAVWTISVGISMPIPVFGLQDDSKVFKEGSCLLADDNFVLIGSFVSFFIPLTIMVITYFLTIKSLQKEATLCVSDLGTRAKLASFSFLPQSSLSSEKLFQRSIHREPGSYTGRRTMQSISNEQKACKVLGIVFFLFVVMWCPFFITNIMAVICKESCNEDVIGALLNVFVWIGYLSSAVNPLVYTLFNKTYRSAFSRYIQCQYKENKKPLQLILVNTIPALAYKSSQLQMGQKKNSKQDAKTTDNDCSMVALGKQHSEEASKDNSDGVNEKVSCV
T5 sequence (P50406 whole entry): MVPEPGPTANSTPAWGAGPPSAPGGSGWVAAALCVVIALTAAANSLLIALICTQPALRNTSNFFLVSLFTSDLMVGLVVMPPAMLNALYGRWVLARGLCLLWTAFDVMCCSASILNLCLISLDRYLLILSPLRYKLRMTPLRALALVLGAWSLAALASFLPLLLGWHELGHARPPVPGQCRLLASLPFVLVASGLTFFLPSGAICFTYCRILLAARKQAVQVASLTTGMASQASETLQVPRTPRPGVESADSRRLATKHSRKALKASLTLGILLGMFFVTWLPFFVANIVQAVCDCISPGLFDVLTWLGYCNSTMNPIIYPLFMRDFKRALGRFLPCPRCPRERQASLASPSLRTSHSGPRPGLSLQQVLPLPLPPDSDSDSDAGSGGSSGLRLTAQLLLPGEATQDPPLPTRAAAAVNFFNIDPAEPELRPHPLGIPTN

**Q.** What does the source list for `Cc1ccc2c(c1)c1c(n2CCc2ccc(C)nc2)CC[N+](C)([O-])C1` (centres unmarked) [Example 93, 2,8-dimethyl-5-(2-(6-methylpyridin-3-yl)ethyl)-2,3,4,5-tetrahydro-1H-pyrido[4,3-b]indole 2-oxide]?
**A.** Ser. 5-HT2C [1]: 9; Hist. H1 [2]: 68; Adren. alpha2B [3]: 36; Ser. 5-HT2A [4]: 4; Ser. 5-HT6 [5]: 11
